As usually defined, the T/C is the result in the treated group divided by that in the control group, in per cent.

Where “and” joins values, the source holds several entries; their conditions need not be identical. Equal entries are not always repeated. Square brackets hold non-standard residues; d marks the D form. Peptide text beside a SMILES is read from it. Ac5c = NC1(C(=O)O)CCCC1

The experiment has as its system Swiss mice, Sarcoma 180 sc, mean tumor weight T/C. Description: NCI In Vivo Anticancer Drug Screen. Data for tumor model Sarcoma 180 (subcutaneous) in Swiss mice. To be noted: endpoint: mean tumor weight, higher = larger tumour. Summed up:
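T/C ratio: treated over vehicle-treated controls, measuring survival or tumor size in transplanted-tumor mice.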

The mark [1] stands for this setting: dose: 100.0 mg/kg/injection, schedule: Q01DX007 (ip), vehicle: water.

Take `Cc1[nH]ccc2c(C)c3nc4ccccc4c3cc12`: the T/C is, setting by setting: (dose: 25.0 mg/kg/injection, schedule: Q01DX007 (ip), vehicle: water) 171 % of control; (dose: 50.0 mg/kg/injection, schedule: Q01DX007 (ip), vehicle: water) 122 % of control; under setting [1], 116 % of control; (dose: 200.0 mg/kg/injection, schedule: Q01DX007 (ip), vehicle: water) 42 % of control.
Take `COC1C(OC(=O)/C=C/C=C/C=C/C=C/C(=O)O)CCC2(CO2)C1C1(C)OC1CC=C(C)C` (stereo not drawn): the T/C (dose: 2.5 mg/kg/injection, schedule: Q#A X014 (ip), vehicle: saline) is 70 % of control; the T/C (dose: 5.0 mg/kg/injection, schedule: Q#A X014 (ip), vehicle: methylcellulose (MC)) is 76 % of control; the T/C (dose: 5.0 mg/kg/injection, schedule: Q#A X014 (ip), vehicle: saline) was 54 % of control; the T/C (dose: 6.0 mg/kg/injection, schedule: Q01DX007 (ip), vehicle: carboxymethylcellulose (CMC)) was 62 % of control; the T/C (dose: 6.3 mg/kg/injection, schedule: Q01DX007 (ip), vehicle: carboxymethylcellulose (CMC)) was 58 % of control; the T/C (dose: 10.0 mg/kg/injection, schedule: Q#A X014 (ip), vehicle: methylcellulose (MC)) was 50 % of control. Moreover, the T/C (dose: 10.0 mg/kg/injection, schedule: Q#A X014 (ip), vehicle: saline) is 58 % of control; the T/C (dose: 12.0 mg/kg/injection, schedule: Q01DX007 (ip), vehicle: carboxymethylcellulose (CMC)) was 60 % of control; the T/C (dose: 12.5 mg/kg/injection, schedule: Q01DX007 (ip), vehicle: carboxymethylcellulose (CMC)) is 84 % of control; the T/C (dose: 20.0 mg/kg/injection, schedule: Q#A X014 (ip), vehicle: methylcellulose (MC)) is 50 % of control; the T/C (dose: 20.0 mg/kg/injection, schedule: Q#A X014 (ip), vehicle: saline) is 51 % of control; the T/C (dose: 25.0 mg/kg/injection, schedule: Q01DX007 (ip), vehicle: carboxymethylcellulose (CMC)) is 41 % of control and 53 % of control and 63 % of control. Also, the T/C was 38 % of control (dose: 40.0 mg/kg/injection, schedule: Q#A X014 (ip), vehicle: methylcellulose (MC)); 39 % of control (dose: 40.0 mg/kg/injection, schedule: Q#A X014 (ip), vehicle: saline); 19 % of control (dose: 80.0 mg/kg/injection, schedule: Q#A X014 (ip), vehicle: methylcellulose (MC)); 17 % of control and 36 % of control (dose: 200.0 mg/kg/injection, schedule: Q01DX007 (ip), vehicle: carboxymethylcellulose (CMC)).
Turning to `CC(=O)[C@H]1CC[C@H]2[C@@H]3C[C@H](C)C4=CC(=O)CC[C@]4(C)[C@H]3C(=O)C[C@]12C`, the T/C (dose: 25.0 mg/kg/injection, schedule: Q#A X014 (oral), vehicle: steriod suspending solution) was 72 % of control; the T/C (dose: 62.5 mg/kg/injection, schedule: Q#A X014 (oral), vehicle: steriod suspending solution) is 55 % of control; the T/C (dose: 110.0 mg/kg/injection, schedule: Q#A X014 (oral), vehicle: steriod suspending solution) is 86 % of control.
Consider `O=c1[nH]c(Cl)ncc1F`, for which the T/C (dose: 22.0 mg/kg/injection, schedule: Q01DX007 (ip), vehicle: saline) is 36 % of control; the T/C (dose: 33.0 mg/kg/injection, schedule: Q01DX007 (ip), vehicle: saline) was 46 % of control; the T/C (dose: 50.0 mg/kg/injection, schedule: Q01DX007 (ip), vehicle: saline) is 29 % of control; the T/C (dose: 75.0 mg/kg/injection, schedule: Q01DX007 (ip), vehicle: saline) is 5 % of control.
Take `NC(=O)c1cn(C2OC(CO)C(O)C2O)c2ncnc(N)c12` (stereo not drawn): under “dose: 0.5 mg/kg/injection, schedule: Q01DX007 (ip), vehicle: carboxymethylcellulose (CMC)”, the T/C is 87 % of control.
As for `CC(=O)C(CCC(=O)O)(CCC(=O)O)c1ccccc1`, the T/C reads like this: (dose: 15.0 mg/kg/injection, schedule: Q#A X014 (ip), vehicle: other) 83 % of control; (dose: 30.0 mg/kg/injection, schedule: Q#A X014 (ip), vehicle: other) 106 % of control; (dose: 60.0 mg/kg/injection, schedule: Q#A X014 (ip), vehicle: other) 98 % of control; (dose: 120.0 mg/kg/injection, schedule: Q#A X014 (ip), vehicle: other) 112 % of control.
For the compound `N#[N+]c1nc2ncnc(N)c2[nH]1`, the T/C was 66 % of control (dose: 6.25 mg/kg/injection, schedule: Q#A X014 (ip), vehicle: saline); 65 % of control (dose: 12.5 mg/kg/injection, schedule: Q#A X014 (ip), vehicle: saline); 86 % of control (dose: 25.0 mg/kg/injection, schedule: Q#A X014 (ip), vehicle: saline).
In the case of `Clc1ccc2c(Cl)ncnc2c1`, the T/C by setting is: (dose: 22.0 mg/kg/injection, schedule: Q#A X014 (ip), vehicle: methylcellulose (MC)) 58 % of control and 64 % of control; (dose: 22.5 mg/kg/injection, schedule: Q#A X014 (ip), vehicle: methylcellulose (MC)) 80 % of control; (dose: 33.0 mg/kg/injection, schedule: Q#A X014 (ip), vehicle: methylcellulose (MC)) 57 % of control and 65 % of control; (dose: 33.5 mg/kg/injection, schedule: Q#A X014 (ip), vehicle: methylcellulose (MC)) 51 % of control; (dose: 50.0 mg/kg/injection, schedule: Q#A X014 (ip), vehicle: methylcellulose (MC)) 42 % of control and 48 % of control and 64 % of control; (dose: 75.0 mg/kg/injection, schedule: Q#A X014 (ip), vehicle: methylcellulose (MC)) 21 % of control.
As for `Nc1nc(SCc2ccccn2)c2ncn(C3OC(CO)C(O)C3O)c2n1` (stereo not drawn), the T/C is 52 % of control (dose: 11.1 mg/kg/injection, schedule: Q#A X014 (ip), vehicle: methylcellulose (MC)); 48 % of control (dose: 16.65 mg/kg/injection, schedule: Q#A X014 (ip), vehicle: methylcellulose (MC)); 37 % of control (dose: 25.0 mg/kg/injection, schedule: Q#A X014 (ip), vehicle: methylcellulose (MC)); 41 % of control (dose: 37.5 mg/kg/injection, schedule: Q#A X014 (ip), vehicle: methylcellulose (MC)).
On to `Cc1ccc2[nH]c(C)c(CCN)c2c1`, for which the T/C reads like this: (dose: 44.0 mg/kg/injection, schedule: Q01DX007 (ip), vehicle: water) 95 % of control; (dose: 66.0 mg/kg/injection, schedule: Q01DX007 (ip), vehicle: water) 119 % of control; under setting [1], 97 % of control.
For `O=C(O)C(O)C(F)(F)F` (stereo not drawn), the T/C was 111 % of control (dose: 15.5 mg/kg/injection, schedule: Q#A X014 (ip), vehicle: saline); 90 % of control (dose: 62.5 mg/kg/injection, schedule: Q#A X014 (ip), vehicle: saline); 123 % of control (dose: 125.0 mg/kg/injection, schedule: Q#A X014 (ip), vehicle: saline).
Regarding `CC(C)(c1ccccc1)c1ccc(O)cc1`, the T/C runs as follows: (dose: 37.5 mg/kg/injection, schedule: Q01DX007 (ip), vehicle: carboxymethylcellulose (CMC)) 64 % of control; (dose: 75.0 mg/kg/injection, schedule: Q01DX007 (ip), vehicle: carboxymethylcellulose (CMC)) 73 % of control; (dose: 150.0 mg/kg/injection, schedule: Q01DX007 (ip), vehicle: carboxymethylcellulose (CMC)) 44 % of control.
Take `CCCC(=O)OCC1OC(n2cnc3c(=S)nc[nH]c32)C(OC(=O)CCC)C1OC(=O)CCC` (stereo not drawn): the T/C (dose: 250.0 mg/kg/injection, schedule: Q01DX007 (ip), vehicle: carboxymethylcellulose (CMC)) is 36 % of control.
`CN(C)N=Nc1n[nH]nc1C(N)=O`: the T/C was 70 % of control (dose: 31.0 mg/kg/injection, schedule: Q01DX007 (ip), vehicle: carboxymethylcellulose (CMC)); 84 % of control (dose: 62.0 mg/kg/injection, schedule: Q01DX007 (ip), vehicle: carboxymethylcellulose (CMC)); 43 % of control (dose: 125.0 mg/kg/injection, schedule: Q01DX007 (ip), vehicle: carboxymethylcellulose (CMC)).
On to `NC1(C(=O)NC2(C(=O)O)CCCC2)CCCC1` (H-[Ac5c]-[Ac5c]-OH), for which the T/C (dose: 7.5 mg/kg/injection, schedule: Q#A X014 (ip), vehicle: carboxymethylcellulose (CMC)) is 66 % of control; the T/C (dose: 15.0 mg/kg/injection, schedule: Q#A X014 (ip), vehicle: carboxymethylcellulose (CMC)) is 65 % of control; the T/C (dose: 30.0 mg/kg/injection, schedule: Q#A X014 (ip), vehicle: carboxymethylcellulose (CMC)) is 58 % of control; the T/C (dose: 60.0 mg/kg/injection, schedule: Q#A X014 (ip), vehicle: carboxymethylcellulose (CMC)) was 32 % of control.
Consider `C=C(C)C(=O)O[C@H]1CC2=C[C@@H](C[C@@]3(C)O[C@@H]3[C@H]3OC(=O)C(=C)[C@@H]31)OC2=O`, for which the T/C is, setting by setting: (dose: 2.5 mg/kg/injection, schedule: Q01DX007 (ip), vehicle: saline) 105 % of control; (dose: 5.0 mg/kg/injection, schedule: Q01DX007 (ip), vehicle: saline) 106 % of control; (dose: 10.0 mg/kg/injection, schedule: Q01DX007 (ip), vehicle: saline) 100 % of control.
As for `CC(=O)[C@H]1CC[C@H]2[C@@H]3CCC4=CC(=O)[C@H](C)C[C@]4(C)[C@H]3C(=O)C[C@]12C`, the T/C by setting is: (dose: 50.0 mg/kg/injection, schedule: Q#A X014 (oral), vehicle: steriod suspending solution) 97 % of control; (dose: 125.0 mg/kg/injection, schedule: Q#A X014 (oral), vehicle: steriod suspending solution) 68 % of control; (dose: 250.0 mg/kg/injection, schedule: Q#A X014 (oral), vehicle: steriod suspending solution) 63 % of control.

The values are drawn from PubChem BioAssay AID342 (DTP/NCI, 2004).
